The values that follow come from patent publication US11242335B2, “Fluorine-substituted indazole compounds and uses thereof” (SUNSHINE LAKE PHARMA CO., LTD., priority 2017, dated 2022).

Data set [1] can be described thus: Pharmacokinetics in male SD rats after intravenous and oral administration. The format is in vivo. How it is done: Preparation of test compound solution: The test compound was formulated with 5% dimethylsulfoxide, 5% Solutol HS 15 and 90% physiological saline to give solution, which was used for oral and intravenous administration.
Male SD rats weighing 190-250 g were randomly divided into two groups, each group had three members; one group received test compound at a dose of 1.0 mg/kg by intravenous injection, the other group received test compound at a dose of 2.5 or 5.0 mg/kg by oral. After dosing, blood samples were collected at time points of 0.0833, 0.25, 0.5, 1.0, 2.0, 4.0, 7.0 and 24 h. Standard curve was plotted based on concentrations of the samples in a suitable range, the concentrations of test compounds in plasma samples were determined by using AB SCIEX API4000 LC-MS/MS in MRM mode. Pharmacokinetic parameters were calculated according to drug concentration-time curve using a noncompartmental method by WinNonLin 6.3 software.

In the next data set the target is T1, hERG potassium channel (Homo sapiens, UniProt Q12809).
T1 construct: expressed in transfected cells; host or cells: HEK293
In words: Inhibition of hERG potassium channel, manual patch clamp in HEK293 cells. To be noted: hERG tail current; HEK293 cells overexpressing hERG; whole cell patch clamp; 22-24° C. The format is cell-based. The method, then:
Each compound was weighed and dissolved in DMSO and diluted with DMSO to a serial solution (30, 10, 3.3, 1.1, 0.37 mM). The above serial solutions were diluted to 1000-fold with the extracellular fluid to prepare test solutions (final concentration was 30, 10, 3.3, 1.1, 0.37 μM respectively).
The HEK293 cells that overexpressed the hERG potassium channel were cultured in a 37° C., 5% CO2 incubator, and the culture medium contained DMEM, 15% fetal bovine serum, and 1% penicillin-streptomycin. When the cell density reached 80% of the culture plate, the cells were digested with trypsin/EDTA and transferred to a centrifuge tube, centrifuged at 1000 rpm for 3 minutes, then supernatant was discarded, and the cell culture medium was added. The cells were mixed uniformly by gently blowing and beating. […]
The whole cell recording mode was used to record the channel current in the experiment. Firstly, the extracellular fluid was perfused (approximately 2 mL per minute) and the data were continuous recorded, and the current was kept steady (the current decay was less than 5% in 5 minutes). […] The extracellular fluid containing the test compound was then perfused and the data were continuous recorded until the compound's inhibitory effect on the hERG current reached a steady state, at this time point the peak value of tail current was the current value after dosing. […]
(In general: hERG is a cardiac potassium channel; its block is linked to QT prolongation.)

Structures are written as SMILES.

T1 sequence (Q12809 whole entry): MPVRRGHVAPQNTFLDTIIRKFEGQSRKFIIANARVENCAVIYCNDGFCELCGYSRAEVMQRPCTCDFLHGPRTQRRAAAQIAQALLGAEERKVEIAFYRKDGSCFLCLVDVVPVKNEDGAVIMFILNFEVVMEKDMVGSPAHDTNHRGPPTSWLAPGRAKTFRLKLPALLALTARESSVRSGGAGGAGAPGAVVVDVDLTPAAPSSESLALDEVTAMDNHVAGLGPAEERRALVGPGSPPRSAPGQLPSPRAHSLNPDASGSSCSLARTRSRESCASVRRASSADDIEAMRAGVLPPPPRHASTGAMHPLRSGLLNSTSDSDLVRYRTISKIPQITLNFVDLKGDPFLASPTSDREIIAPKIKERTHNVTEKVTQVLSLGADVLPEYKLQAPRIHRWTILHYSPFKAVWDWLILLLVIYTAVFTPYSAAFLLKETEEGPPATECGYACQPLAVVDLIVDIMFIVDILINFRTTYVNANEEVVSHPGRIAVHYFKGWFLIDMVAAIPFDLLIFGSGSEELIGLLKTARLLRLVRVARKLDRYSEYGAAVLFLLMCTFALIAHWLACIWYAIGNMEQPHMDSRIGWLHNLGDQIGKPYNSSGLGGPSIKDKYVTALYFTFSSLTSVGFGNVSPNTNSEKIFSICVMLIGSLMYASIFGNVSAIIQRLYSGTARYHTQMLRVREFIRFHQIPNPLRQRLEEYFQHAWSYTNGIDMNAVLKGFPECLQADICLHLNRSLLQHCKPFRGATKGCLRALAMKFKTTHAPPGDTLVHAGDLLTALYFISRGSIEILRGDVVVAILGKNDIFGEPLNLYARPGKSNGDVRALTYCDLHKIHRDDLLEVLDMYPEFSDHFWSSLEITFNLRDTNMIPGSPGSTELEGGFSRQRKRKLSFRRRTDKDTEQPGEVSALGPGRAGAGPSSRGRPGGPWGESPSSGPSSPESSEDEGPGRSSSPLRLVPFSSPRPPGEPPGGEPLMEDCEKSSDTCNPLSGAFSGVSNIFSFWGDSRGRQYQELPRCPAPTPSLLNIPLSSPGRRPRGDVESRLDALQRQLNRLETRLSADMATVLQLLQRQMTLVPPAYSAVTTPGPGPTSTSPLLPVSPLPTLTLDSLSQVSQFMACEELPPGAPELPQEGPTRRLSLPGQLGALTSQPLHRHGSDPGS

For `COC(=O)Nc1c(N)nc(-c2nn(Cc3ccccc3F)c3cc(F)ccc23)nc1N` [Example 5, methyl (4,6-diamino-2-(6-fluoro-1-(2-fluorobenzyl)-1H-indazol-3-yl)pyrimidin-5-yl)carbamate], in data set [1] (po 5 mg/kg versus iv 1 mg/kg), the F was found to be 93.4%. In data set [1] (rat, plasma, iv, 1 mg/kg), the AUC(0-t) (usually the area under the concentration-time curve up to a stated or last time point) was found to be 10300 ng·h/mL, the peak level (Cmax) was 2820 ng/mL, the time of peak concentration (Tmax) (usually the time from dosing to the highest level) was found to be 0.083 h and the clearance stood at 1.59 mL/min/kg. Also, in data set [1] (rat, plasma, iv, 1 mg/kg), the half-life (commonly how long it takes for the measured level to halve) is 4.49 h. In data set [1] (rat, plasma, iv, 1 mg/kg, read-out: Vss), the Vd was determined as 0.483 L/kg. Besides, in data set [1] (rat, plasma, po, 5 mg/kg), the AUC(0-t) turned out to be 39700 ng·h/mL, the peak level (Cmax) was 2690 ng/mL, the time of peak concentration (Tmax) was determined as 3.5 h and the half-life is 10.9 h. Besides, on hERG potassium channel, the half-inhibitory concentration (IC50) (commonly the concentration at which inhibition is half-maximal) was greater than 30 µM.
